Measured values taken from the supplement of paper PMC10307832.

Key:
Assay in all cases: relative viability (nuclei count vs DMSO), 5 days (fraction); higher = more cells survive
[1] = compound: CC(C)N(CCCNC(=O)Nc1ccc(C(C)(C)C)cc1)C[C@H]1O[C@@H](n2ccc3c(N)ncnc32)[C@H](O)[C@@H]1O + Nc1ncn([C@H]2C[C@H](O)[C@@H](CO)O2)c(=O)n1 [Decitabine] (partner 2 µM)
Outline: (§1)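 One day after seeding in 1536-well plates, lung cancer cell lines were dosed by pin tool. Dosing was either single-drug or a fixed anchor-drug dose plus five library-drug doses (not always all listed) in √10 steps. After 5 days, nuclei were stained in one fix-and-stain step and counted on 4× images, and relative viability is the nuclei count of treated wells over that of vehicle wells, given as the median of duplicate plates.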

[2] = compound: CC(C)N(CCCNC(=O)Nc1ccc(C(C)(C)C)cc1)C[C@H]1O[C@@H](n2ccc3c(N)ncnc32)[C@H](O)[C@@H]1O + O=C(c1cc(Cc2n[nH]c(=O)c3ccccc23)ccc1F)N1CCN(C(=O)C2CC2)CC1 [Olaparib] (partner 8 µM)
Outline: as §1

[3] = compound: CC(C)=CC[C@@H](O)C1=CC(=O)c2c(O)ccc(O)c2C1=O [Shikonin] + CS(=O)(=O)CCNCc1ccc(-c2ccc3ncnc(Nc4ccc(OCc5cccc(F)c5)c(Cl)c4)c3c2)o1 [Lapatinib] (partner 2 µM)
Outline: as §1

[4] = compound: CC(C)N(CCCNC(=O)Nc1ccc(C(C)(C)C)cc1)C[C@H]1O[C@@H](n2ccc3c(N)ncnc32)[C@H](O)[C@@H]1O + C[C@@H](Oc1cc(-c2cnn(C3CCNCC3)c2)cnc1N)c1c(Cl)ccc(F)c1Cl [Crizotinib] (partner 1 µM)
Outline: as §1

Cell Line | relative viability ([1]; first compound 0.08 µM) | relative viability ([1]; first compound 0.253 µM) | relative viability ([1]; first compound 2.53 µM) | relative viability ([1]; first compound 8 µM) | relative viability ([2]; first compound 0.08 µM) | relative viability ([2]; first compound 0.253 µM) | relative viability ([2]; first compound 2.53 µM) | relative viability ([2]; first compound 8 µM) | relative viability ([3]; first compound 0.01 µM) | relative viability ([3]; first compound 0.1 µM) | relative viability ([3]; first compound 0.3162 µM) | relative viability ([3]; first compound 1 µM) | relative viability ([4]; first compound 0.08 µM) | relative viability ([4]; first compound 0.253 µM) | relative viability ([4]; first compound 0.8 µM) | relative viability ([4]; first compound 2.53 µM) | relative viability ([4]; first compound 8 µM) | relative viability ([1]; first compound 0.8 µM) | relative viability ([2]; first compound 0.8 µM)
201T | 0.841 | 0.889 | 0.876 | 0.844 | 0.83 | 0.891 | 0.809 | 0.797 | 1.05 | 1.12 | 1.02 | 1.05 | 1.01 | 1.01 | 1.09 | 1.03 | 1.04 | – | –
A549 | 0.278 | 0.292 | 0.215 | 0.189 | 0.409 | 0.32 | 0.535 | 0.317 | 1.08 | 1.09 | 1.03 | 1.1 | 0.7 | 0.609 | 0.739 | 0.708 | 0.714 | 0.291 | 0.251
A-427 | 0.556 | 0.535 | 0.541 | 0.568 | 0.71 | 0.779 | 0.771 | 0.702 | 1.05 | 1.37 | 0.967 | 1.14 | 0.908 | 0.856 | 0.95 | 0.989 | 0.851 | 0.568 | 0.613
ABC-1 | 1.03 | 1.23 | 1.15 | 1.32 | 0.69 | 0.745 | 1.47 | 0.8 | 1.5 | 1.28 | 1.27 | 1.2 | 0.816 | 0.926 | – | 1.26 | 1.13 | – | –
BEN | 0.602 | 0.596 | 0.717 | 0.678 | 0.974 | 1.25 | 1.03 | 1.02 | 0.654 | 0.897 | 0.776 | 0.768 | 0.836 | 0.768 | 0.825 | 0.715 | 0.921 | 0.739 | 1.24
CAL-12T | – | – | – | – | 0.735 | 0.775 | 0.698 | 0.723 | 0.636 | 0.632 | 0.649 | 0.638 | 0.626 | 0.548 | 0.63 | 0.563 | 0.529 | – | 0.702
COR-L23 | 0.46 | 0.33 | 0.48 | 0.456 | 0.297 | 0.376 | 0.347 | 0.29 | 1.03 | 1.07 | 1.13 | 1.05 | 0.601 | 0.724 | 0.765 | 0.755 | 0.574 | 0.467 | 0.365
COR-L 105 | 0.631 | 0.67 | 0.638 | 0.694 | 0.678 | 0.724 | 0.652 | 0.649 | 0.339 | 0.346 | 0.318 | 0.36 | 0.671 | 0.823 | 0.82 | 0.724 | 0.846 | 0.736 | 0.702
Calu-6 | – | – | – | – | 0.521 | 0.53 | 0.552 | 0.57 | 1.16 | 1.34 | 1.11 | 1.16 | 0.744 | 0.863 | 0.79 | 0.771 | 0.781 | – | 0.547
ChaGo-K-1 | 0.468 | 0.545 | 0.522 | 0.505 | 0.423 | 0.413 | 0.392 | 0.389 | – | – | – | – | 1.16 | 1.22 | 1.2 | 1.14 | 1.08 | 0.494 | 0.431
EBC-1 | – | – | – | – | 0.766 | 0.746 | 0.85 | 0.657 | 0.19 | 0.191 | 0.213 | 0.217 | 0.207 | 0.199 | 0.18 | 0.178 | 0.171 | – | 0.76
EKVX | 0.342 | 0.339 | 0.36 | 0.351 | 0.818 | 0.83 | 0.803 | 0.752 | 0.18 | 0.202 | 0.214 | 0.19 | 0.989 | 0.83 | 0.822 | 0.917 | 0.804 | 0.327 | 0.67
EMC-BAC-2 | 0.939 | 1.02 | 1.09 | 0.96 | 0.486 | 0.513 | 0.389 | 0.435 | 0.939 | 0.999 | 0.941 | 0.923 | 0.729 | 0.727 | 0.655 | 0.643 | 0.707 | 1.07 | 0.472
EPLC-272H | 0.366 | 0.381 | 0.413 | 0.39 | 0.669 | 0.85 | 0.734 | 0.859 | 0.869 | 1.2 | 1.08 | 1.22 | 0.944 | 0.986 | 0.869 | 0.895 | 0.822 | 0.368 | 0.764
H3255 | 0.613 | 0.645 | 0.626 | 0.511 | 0.552 | 0.562 | 0.598 | 0.517 | 0.206 | 0.258 | 0.215 | 0.271 | 0.763 | 0.76 | 0.959 | 0.717 | 0.735 | 0.491 | 0.555
HARA | 0.556 | 0.545 | 0.457 | 0.495 | 0.844 | 0.737 | 0.538 | 0.494 | 0.888 | 0.903 | 0.853 | 0.77 | 0.991 | 0.968 | 0.927 | 1.1 | 0.988 | 0.62 | 0.764
HCC-15 | 0.655 | 0.592 | 0.646 | 0.544 | 0.669 | 0.754 | 0.758 | 0.709 | 0.945 | 0.996 | 0.918 | 0.919 | 0.85 | 0.804 | 0.819 | 0.832 | 0.776 | 0.65 | 0.702
HCC-44 | 0.979 | 1.01 | 0.966 | 0.915 | 1 | 1.03 | 1 | 0.972 | 1.07 | 1.07 | 1.05 | 1.09 | 0.788 | 0.864 | 0.832 | 0.859 | 0.744 | 0.714 | 0.981
